We go through 89 compounds from the Kinase Knowledgebase extract (Sharma et al. 2016).

The target in this test is ROCK2 (human) (UniProt O75116). Put plainly: Inhibition of ROCK2 Kinase Activity.
Sequence of ROCK2 (human) (O75116 whole entry, looked up): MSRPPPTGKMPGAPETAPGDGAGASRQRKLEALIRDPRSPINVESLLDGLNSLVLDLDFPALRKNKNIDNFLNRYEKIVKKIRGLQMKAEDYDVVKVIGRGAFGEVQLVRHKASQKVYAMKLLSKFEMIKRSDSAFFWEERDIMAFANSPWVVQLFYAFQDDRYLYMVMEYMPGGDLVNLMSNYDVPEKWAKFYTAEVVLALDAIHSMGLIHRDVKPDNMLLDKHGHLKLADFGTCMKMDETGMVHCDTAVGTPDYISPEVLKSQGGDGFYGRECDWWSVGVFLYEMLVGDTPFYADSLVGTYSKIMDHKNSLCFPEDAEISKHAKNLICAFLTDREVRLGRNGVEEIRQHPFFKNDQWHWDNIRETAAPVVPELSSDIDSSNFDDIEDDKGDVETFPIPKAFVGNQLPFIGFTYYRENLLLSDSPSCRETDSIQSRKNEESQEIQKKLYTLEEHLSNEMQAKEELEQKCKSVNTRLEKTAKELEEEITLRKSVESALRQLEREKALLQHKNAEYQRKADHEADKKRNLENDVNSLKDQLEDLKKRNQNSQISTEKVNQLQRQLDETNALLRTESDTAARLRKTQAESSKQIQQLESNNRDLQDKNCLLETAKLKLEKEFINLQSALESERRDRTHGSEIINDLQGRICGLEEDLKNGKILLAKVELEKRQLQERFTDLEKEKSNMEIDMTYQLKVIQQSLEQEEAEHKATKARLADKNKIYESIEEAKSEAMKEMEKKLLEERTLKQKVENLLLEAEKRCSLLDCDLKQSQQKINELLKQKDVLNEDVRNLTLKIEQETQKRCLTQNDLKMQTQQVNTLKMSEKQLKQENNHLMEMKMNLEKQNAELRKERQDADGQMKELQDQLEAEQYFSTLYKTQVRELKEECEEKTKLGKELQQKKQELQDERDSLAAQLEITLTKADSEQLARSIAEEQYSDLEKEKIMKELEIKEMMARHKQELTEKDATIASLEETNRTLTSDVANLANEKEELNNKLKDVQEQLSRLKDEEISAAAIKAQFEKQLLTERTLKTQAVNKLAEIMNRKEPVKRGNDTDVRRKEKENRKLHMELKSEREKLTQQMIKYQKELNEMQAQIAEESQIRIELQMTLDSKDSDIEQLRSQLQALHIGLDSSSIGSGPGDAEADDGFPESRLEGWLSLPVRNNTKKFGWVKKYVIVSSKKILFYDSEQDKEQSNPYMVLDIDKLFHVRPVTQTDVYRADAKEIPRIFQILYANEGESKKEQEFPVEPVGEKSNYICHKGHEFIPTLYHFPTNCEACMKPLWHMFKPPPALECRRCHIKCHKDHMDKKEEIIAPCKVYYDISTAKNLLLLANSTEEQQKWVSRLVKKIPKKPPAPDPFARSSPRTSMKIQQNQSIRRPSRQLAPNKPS

Regarding `NC(CC(=O)NCc1ccc2c(c1)OCO2)c1ccc(C(=O)Nc2ccncc2)cc1` (centres undefined), the IC50 was 0.05 to 0.5 µM. Next, `CN(CC(N)c1ccc(C(=O)Nc2ccncc2)cc1)C(=O)C1(c2ccc(F)c(F)c2)CCC1` (centres undefined): 0.5 to 5 µM. As for `NC(CNC(=O)CNC(=O)c1ccccc1)c1ccc(C(=O)Nc2ccncc2)cc1` (centres undefined), the IC50 was in the range of 0.05 to 0.5 µM.

Compound `NC(CC(=O)NNC(=O)c1ccco1)c1ccc(C(=O)Nc2ccncc2)cc1` (centres undefined) had an IC50 of 0.05 to 0.5 µM. Next, `CN(CC(N)c1ccc(C(=O)Nc2ccncc2)cc1)C(=O)C1(c2ccc(Cl)cc2)CCCC1` (centres undefined): 0.5 to 5 µM; `NC(CNC(=O)c1ccc(C(=O)c2ccccc2)cc1)c1ccc(C(=O)Nc2ccncc2)cc1` (centres undefined): 0.5 to 5 µM. For `Cc1ccc(C)c(CNC(=O)CC(N)c2ccc(C(=O)Nc3ccncc3)cc2)c1` (centres undefined), the IC50 fell in the range of 0.05 to 0.5 µM. Next, `CNS(=O)(=O)c1ccc(C(=O)NCC(N)c2ccc(C(=O)Nc3ccncc3)cc2)cc1` (centres undefined): 0.5 to 5 µM; `CC(=O)Nc1ccc(C(=O)NCC(N)c2ccc(C(=O)Nc3ccncc3)cc2)cc1` (centres undefined): 0.5 to 5 µM; `Cc1ccccc1CNC(=O)NCC(N)c1ccc(C(=O)Nc2ccncc2)cc1` (centres undefined): 0.05 to 0.5 µM. In turn, `NC(c1ccc(C(=O)Nc2ccncc2)cc1)C1CCCN1C(=O)C1(c2cccc(F)c2)CCCC1` (centres undefined) came in with a 50% inhibitory concentration (IC50) of 0.5 to 5 µM. Next, `N[C@@H](CC(=O)NCc1ccc(F)cc1)c1ccc(C(=O)Nc2ccncc2)cc1`: 0.05 to 0.5 µM; `CN(CC(N)c1ccc(C(=O)Nc2ccncc2)cc1)C(=O)C1(c2ccc(F)cc2)CC1` (centres undefined): 0.5 to 5 µM; `CCCCNC(=O)NCC(N)c1ccc(C(=O)Nc2ccncc2)cc1` (centres undefined): 0.5 to 5 µM.

`COc1ccc(CNC(=O)NCC(N)c2ccc(C(=O)Nc3ccncc3)cc2)cc1` (centres undefined) had an IC50 of 0.05 to 0.5 µM. The figure for `NC(c1ccc(C(=O)Nc2ccncc2)cc1)C1CCCN1C(=O)Cc1csc2ccccc12` (centres undefined) is 0.05 to 0.5 µM; for `COc1ccc(C(=O)NCC(N)c2ccc(C(=O)Nc3ccncc3)cc2)cc1` (centres undefined) it is 0.5 to 5 µM; for `N[C@H](CC(=O)N[C@H]1CCCc2ccccc21)c1ccc(C(=O)Nc2ccncc2)cc1` it is 0.05 to 0.5 µM. Next, `NC(CNC(=O)c1cc2cc(F)ccc2[nH]1)c1ccc(C(=O)Nc2ccncc2)cc1` (centres undefined): 0.5 to 5 µM; `Cc1ccc(CC(=O)N(C)CC(N)c2ccc(C(=O)Nc3ccncc3)cc2)cc1` (centres undefined): 0.5 to 5 µM; `CC(C)(C(=O)NCC(N)c1ccc(C(=O)Nc2ccncc2)cc1)c1ccc(F)c(Cl)c1` (centres undefined): 0.05 to 0.5 µM. Next, `NC(CC(=O)NCc1ccc(OC(F)(F)F)cc1)c1ccc(C(=O)Nc2ccncc2)cc1` (centres undefined): 0.05 to 0.5 µM; `CN(CC(N)c1ccc(C(=O)Nc2ccncc2)cc1)C(=O)Cc1ccc(F)c(F)c1` (centres undefined): 0.5 to 5 µM. For the compound `NC(CC(=O)NCc1ccc(Cl)cc1Cl)c1ccc(C(=O)Nc2ccncc2)cc1` (centres undefined), the IC50 was 0.05 to 0.5 µM.

In turn, `NC(CNC(=O)c1ccc2c(c1)OCO2)c1ccc(C(=O)Nc2ccncc2)cc1` (centres undefined) displayed an IC50 of 0.05 to 0.5 µM. The figure for `COC1CCC(C(=O)NCC(N)c2ccc(C(=O)Nc3ccncc3)cc2)CC1` (centres undefined) is 0.5 to 5 µM; for `CC(C)(C(=O)N1CCCC1C(N)c1ccc(C(=O)Nc2ccncc2)cc1)c1ccc(Cl)cc1` (centres undefined) it is 0.5 to 5 µM. The figure for `NC(CC(=O)NCc1ccccc1Cl)c1ccc(C(=O)Nc2ccncc2)cc1` (centres undefined) is 0.05 to 0.5 µM.

Regarding `NC(CNC(=O)c1nccc2ccccc12)c1ccc(C(=O)Nc2ccncc2)cc1` (centres undefined), the IC50 is 0.5 to 5 µM. On to `NC(CNC(=O)COc1ccc(F)cc1)c1ccc(C(=O)Nc2ccncc2)cc1` (centres undefined), for which the IC50 was in the range of 0.05 to 0.5 µM.

For the compound `NC(CC(=O)NCCc1ccccc1F)c1ccc(C(=O)Nc2ccncc2)cc1` (centres undefined), the IC50 is 0.05 to 0.5 µM. `CN(CC(N)c1ccc(C(=O)Nc2ccncc2)cc1)C(=O)Cc1cccc(Cl)c1F` (centres undefined) yielded an IC50 of 0.5 to 5 µM.

As for `N[C@@H](CC(=O)N[C@@H]1CCCc2ccccc21)c1ccc(C(=O)Nc2ccncc2)cc1`, the IC50 was in the range of 0.05 to 0.5 µM.

`Cc1ccccc1CC(=O)NCC(N)c1ccc(C(=O)Nc2ccncc2)cc1` (centres undefined) gave an IC50 of 0.05 to 0.5 µM. As to `CC(C)(C(=O)NCC(N)c1ccc(C(=O)Nc2ccncc2)cc1)c1ccc(Cl)c(Cl)c1` (centres undefined), the IC50 lay within 0.05 to 0.5 µM. Next, `NC(CC(=O)NCc1ccccn1)c1ccc(C(=O)Nc2ccncc2)cc1` (centres undefined): 0.05 to 0.5 µM; `Cc1cc(Cl)ccc1NC(=O)NCC(N)c1ccc(C(=O)Nc2ccncc2)cc1` (centres undefined): 0.05 to 0.5 µM. With `NC(CNC(=O)c1ccc2[nH]nnc2c1)c1ccc(C(=O)Nc2ccncc2)cc1` (centres undefined), the IC50 fell in the range of 0.5 to 5 µM. The figure for `NC(CNC(=O)c1cccc(Oc2ccccc2)c1)c1ccc(C(=O)Nc2ccncc2)cc1` (centres undefined) is 0.5 to 5 µM. On to `Cc1ccc(CNC(=O)CC(N)c2ccc(C(=O)Nc3ccncc3)cc2)cc1Cl` (centres undefined), for which the IC50 is 0.05 to 0.5 µM. The figure for `NC(c1ccc(C(=O)Nc2ccncc2)cc1)C1CCCN1C(=O)Cc1cccc(Cl)c1F` (centres undefined) is 0.5 to 5 µM; for `NC(c1ccc(C(=O)Nc2ccncc2)cc1)C1CCCN1C(=O)C1(c2ccc(F)cc2Cl)CC1` (centres undefined) it is 0.5 to 5 µM. The figure for `NC(CNC(=O)Cc1c[nH]c2ccccc12)c1ccc(C(=O)Nc2ccncc2)cc1` (centres undefined) is 0.05 to 0.5 µM; for `CCOC(=O)CCNC(=O)NCC(N)c1ccc(C(=O)Nc2ccncc2)cc1` (centres undefined) it is 0.5 to 5 µM.

As for `NC(c1ccc(C(=O)Nc2ccncc2)cc1)C1CCCN1C(=O)C1(c2ccc(Cl)c(Cl)c2)CC1` (centres undefined), the IC50 was 0.5 to 5 µM.

In the case of `CC(=NOC(C)(C)C)c1ccc(C(=O)NCC(N)c2ccc(C(=O)Nc3ccncc3)cc2)s1` (centres undefined), the IC50 was in the range of 0.5 to 5 µM. The figure for `NC(CNC(=O)C1(c2ccc(F)c(F)c2)CCCC1)c1ccc(C(=O)Nc2ccncc2)cc1` (centres undefined) is 0.05 to 0.5 µM; for `NC(c1ccc(C(=O)Nc2ccncc2)cc1)C1CCCN1C(=O)Cc1c(F)cccc1F` (centres undefined) it is 0.5 to 5 µM; for `NC(CNC(=S)Nc1ccccc1)c1ccc(C(=O)Nc2ccncc2)cc1` (centres undefined) it is 0.05 to 0.5 µM. The compound `NC(CNC(=O)c1ccc2ncccc2c1)c1ccc(C(=O)Nc2ccncc2)cc1` (centres undefined) showed an IC50 of 0.5 to 5 µM. `CC[C@@H](NC(=O)CC(N)c1ccc(C(=O)Nc2ccncc2)cc1)c1ccccc1` (some centres undefined) came in with an IC50 of 0.05 to 0.5 µM. With `NC(c1ccc(C(=O)Nc2ccncc2)cc1)C1CCCN1C(=O)Cc1c[nH]c2ccccc12` (centres undefined), the IC50 lay within 0.5 to 5 µM.

In the case of `NC(CNC(=O)C1(c2cccs2)CC1)c1ccc(C(=O)Nc2ccncc2)cc1` (centres undefined), the IC50 fell in the range of 0.05 to 0.5 µM. Next, `NC(c1ccc(C(=O)Nc2ccncc2)cc1)C1CCCN1C(=O)C(c1ccccc1)C1CCCC1` (centres undefined): 0.5 to 5 µM; `CCCC(=O)NCC(N)c1ccc(C(=O)Nc2ccncc2)cc1` (centres undefined): 0.5 to 5 µM; `NC(CC(=O)N[C@H]1CCCc2ccccc21)c1ccc(C(=O)Nc2ccncc2)cc1` (some centres undefined): 0.05 to 0.5 µM. `CN(CC(N)c1ccc(C(=O)Nc2ccncc2)cc1)C(=O)Cc1cncc(Br)c1` (centres undefined) registered an IC50 of 0.5 to 5 µM. The figure for `COc1cc(CC(=O)N2CCCC2C(N)c2ccc(C(=O)Nc3ccncc3)cc2)cc(OC)c1OC` (centres undefined) is 0.5 to 5 µM. As for `NC(CNC(=O)C1CCCO1)c1ccc(C(=O)Nc2ccncc2)cc1` (centres undefined), the 50% inhibitory concentration (IC50) lay within 0.5 to 5 µM. Next, `CC1CCC(NC(=O)CC(N)c2ccc(C(=O)Nc3ccncc3)cc2)CC1` (centres undefined): 0.05 to 0.5 µM; `Cc1ccccc1CC(=O)N(C)CC(N)c1ccc(C(=O)Nc2ccncc2)cc1` (centres undefined): 0.5 to 5 µM; `NC(c1ccc(C(=O)Nc2ccncc2)cc1)C1CCCN1C(=O)Cc1ccc(Cl)cc1Cl` (centres undefined): 0.5 to 5 µM.

`NC(c1ccc(C(=O)Nc2ccncc2)cc1)C1CCCN1C(=O)Cc1ccc(C(F)(F)F)cc1` (centres undefined) had a half-inhibitory concentration (IC50) of 0.5 to 5 µM. The figure for `CN(CC(N)c1ccc(C(=O)Nc2ccncc2)cc1)C(=O)C1(c2ccc(Cl)cc2F)CC1` (centres undefined) is 0.5 to 5 µM; for `CN(CC(N)c1ccc(C(=O)Nc2ccncc2)cc1)C(=O)C(C)(C)c1ccc(F)c(F)c1` (centres undefined) it is 0.5 to 5 µM; for `NC(c1ccc(C(=O)Nc2ccncc2)cc1)C1CCCN1C(=O)Cc1cccc(F)c1F` (centres undefined) it is 0.5 to 5 µM.

In turn, `COCCC(=O)NCC(N)c1ccc(C(=O)Nc2ccncc2)cc1` (centres undefined) returned an IC50 of 0.5 to 5 µM. The figure for `NC(CC(=O)NCc1ccccc1F)c1ccc(C(=O)Nc2ccncc2)cc1` (centres undefined) is 0.05 to 0.5 µM; for `NC(CNC(=O)C1(c2ccc(Cl)c(Cl)c2)CCC1)c1ccc(C(=O)Nc2ccncc2)cc1` (centres undefined) it is 0.05 to 0.5 µM.

For the compound `NC(CNC(=O)c1ccccc1)c1ccc(C(=O)Nc2ccncc2)cc1` (centres undefined), the IC50 lay in the range of 0.05 to 0.5 µM. The figure for `COc1ccc(C2(C(=O)NCC(N)c3ccc(C(=O)Nc4ccncc4)cc3)CCCC2)cc1` (centres undefined) is 0.05 to 0.5 µM. In turn, `CCCCNNC(=O)CC(N)c1ccc(C(=O)Nc2ccncc2)cc1` (centres undefined) had an IC50 of 0.05 to 0.5 µM. The compound `NC(c1ccc(C(=O)Nc2ccncc2)cc1)C1CCCN1C(=O)Cc1ccc(F)cc1` (centres undefined) came in with an IC50 of 0.5 to 5 µM.

Consider `Cc1cccc(Cl)c1CNC(=O)CC(N)c1ccc(C(=O)Nc2ccncc2)cc1` (centres undefined), for which the IC50 lay within 0.05 to 0.5 µM.

Take `NC(c1ccc(C(=O)Nc2ccncc2)cc1)C1CCCN1C(=O)Cc1ccc(Br)cc1` (centres undefined): the IC50 was 0.05 to 0.5 µM. Next, `NC(CNC(=O)c1cccc(S(=O)(=O)Nc2ccccc2)c1)c1ccc(C(=O)Nc2ccncc2)cc1` (centres undefined): 0.5 to 5 µM; `NC(c1ccc(C(=O)Nc2ccncc2)cc1)C1CCCN1C(=O)Cc1ccc(F)cc1F` (centres undefined): 0.05 to 0.5 µM; `NC(c1ccc(C(=O)Nc2ccncc2)cc1)C1CCCN1C(=O)Cc1cccc(Cl)c1` (centres undefined): 0.5 to 5 µM.

`CC(C)(C(=O)NCC(N)c1ccc(C(=O)Nc2ccncc2)cc1)c1ccc(F)cc1Cl` (centres undefined) registered an IC50 of 0.05 to 0.5 µM. Next, `NC(CNC(=O)c1ccc(-c2ccccc2)cc1)c1ccc(C(=O)Nc2ccncc2)cc1` (centres undefined): 0.5 to 5 µM; `CC(C)(NC(=O)CC(N)c1ccc(C(=O)Nc2ccncc2)cc1)c1ccc(Cl)cc1` (centres undefined): 0.05 to 0.5 µM. Next, `NC(CNC(=O)c1ccc2ccccc2c1)c1ccc(C(=O)Nc2ccncc2)cc1` (centres undefined): 0.05 to 0.5 µM. Next, `NC(CNC(=O)C1CCOc2ccc(F)cc21)c1ccc(C(=O)Nc2ccncc2)cc1` (centres undefined): 0.05 to 0.5 µM. Regarding `Cc1ncccc1C(=O)NCC(N)c1ccc(C(=O)Nc2ccncc2)cc1` (centres undefined), the IC50 lay in the range of 0.5 to 5 µM.

On to `CC(=O)NCCNC(=O)CC(N)c1ccc(C(=O)Nc2ccncc2)cc1` (centres undefined), for which the IC50 lay within 0.05 to 0.5 µM.

Compound `NC(CC(=O)NCc1cccs1)c1ccc(C(=O)Nc2ccncc2)cc1` (centres undefined) yielded a 50% inhibitory concentration (IC50) of 0.05 to 0.5 µM.

Regarding `CN(CC(N)c1ccc(C(=O)Nc2ccncc2)cc1)C(=O)Cc1c(F)cccc1Cl` (centres undefined), the IC50 lay within 0.5 to 5 µM. Turning to `COc1ccc(CC(=O)NCC(N)c2ccc(C(=O)Nc3ccncc3)cc2)cc1F` (centres undefined), the IC50 lay in the range of 0.05 to 0.5 µM.

Regarding `NC(CNC(=S)Nc1ccc(C(F)(F)F)cc1)c1ccc(C(=O)Nc2ccncc2)cc1` (centres undefined), the IC50 was 0.5 to 5 µM.
